Measured values reported in PubChem BioAssay AID1985 (Southern Research Specialized Biocontainment Screening …, 2009).

Tested on: S. Typhi PhoP-promoter GFP reporter, fluorescence, 4 h
Experiment: modified counter assay using GFP fluorescence, PhoP regulon inhibitor project, dose response (AID 1985)

Point of comparison: `Cc1cc(=O)[nH]c(-n2nc(C)cc2C)n1`, IC50 67.5 µM. Against it:
- O=C(CN1CC(c2ccccc2)CC1=O)N/N=C/c1cc(Br)ccc1O (configuration not stated) — within 1.5-fold, 46.4 µM
- Cc1ccc2sc(N(CCCN(C)C)C(=O)c3ccc(Br)s3)nc2c1C — 1.8-fold higher, 120 µM
- CN1CCN(C(c2cccc(Cl)c2)c2ccccc2Cl)CC1 (configuration not stated) — 1.6-fold higher, 107 µM
- Nc1nc(N)c(Cc2ccc(Cl)cc2Cl)c(N)n1 — 1.5-fold higher, 103 µM
- CCOC(=O)c1ccc(CNCc2ccc(Br)cc2)cc1 — within 1.5-fold, 53.8 µM
- CN1CCc2nc(SCC(=O)Nc3ccc(Cl)cc3)c(C#N)cc2C1 — within 1.5-fold, 67.2 µM
- Cc1ccc(S(=O)(=O)CCC(=O)c2ccc(O)cc2O)cc1 — within 1.5-fold, 69.1 µM
- CCn1cc(C(=O)NCC(C)C)c(=O)c2cc(F)c(N3CCN(C)CC3)cc21 — 2.2-fold lower, 30.6 µM
- C/C(=N\NC(=O)c1ccc(CN2CCc3ccccc3C2)cc1)c1ccccc1O — 1.6-fold lower, 42 µM
- CC(NCc1ccc(Cl)cc1)C(O)c1ccccc1 (configuration not stated) — 1.9-fold higher, 128 µM
- O=C(/C=C/c1cc(Br)ccc1O)c1ccco1 — within 1.5-fold, 68.1 µM
- N=C(N)c1ccc(/C=C/c2ccc(C(=N)N)cc2O)cc1 — 4.2-fold lower, 16.2 µM
- O=C(Nc1nnc(C2COc3ccccc3O2)o1)c1ccc(F)cc1 (configuration not stated) — 1.7-fold lower, 40.9 µM
- Oc1ccc(CN2CCN(Cc3ccccc3)CC2)c2cccnc12 — 1.7-fold lower, 39.5 µM
- c1ccc(Sc2cccc3ccccc23)c(CNC2=NCCN2)c1 — within 1.5-fold, 80 µM
- COc1ccc(Nc2c3ccccc3nc3ccccc23)cc1 — within 1.5-fold, 53.8 µM
- CCCCCNC(=O)c1cn(CC)c2cc(N3CCN(C)CC3)c(F)cc2c1=O — within 1.5-fold, 80.1 µM
- CCCCCCCC(=O)N/N=C/c1ccc([N+](=O)[O-])o1 — 2.2-fold lower, 30.2 µM
- CCC(O)(CC)C(=O)N/N=C/c1cc(Br)cc(Br)c1O — within 1.5-fold, 60.9 µM
- Cn1c(SCC(=O)N/N=C/c2ccc([N+](=O)[O-])s2)nnc1-c1ccc(Cl)cc1 — 1.7-fold lower, 38.9 µM
- CCCCOc1ccc(Br)cc1CSC(=N)N — within 1.5-fold, 56.5 µM
- COC(=O)N/N=C/c1c[n+]([O-])c2ccccc2[n+]1[O-] — within 1.5-fold, 101 µM
- CC[N+](C)(CC)CCC[n+]1c(-c2ccccc2)c2cc(N)ccc2c2ccc(N)cc21 — within 1.5-fold, 53.4 µM
- Nc1nc(=S)c2[nH]cnc2[nH]1 — 11-fold lower, 6.3 µM
- Oc1[nH]c2ccc(Br)cc2c1N=NC(=S)N1CCOCC1 — within 1.5-fold, 47.3 µM
- Nn1cnnc1N/N=C\c1ccc(-c2ccccc2[N+](=O)[O-])o1 — 2.3-fold lower, 29 µM
- COc1cc(C)c(Cc2cnc(N)nc2N)cc1OC — 28-fold lower, 2.4 µM
- Fc1cccc(Nc2c3c(nc4ccccc24)CCC3)c1 — 1.9-fold higher, 126 µM
- COc1ccccc1Nc1c2ccccc2nc2ccccc12 — within 1.5-fold, 80.8 µM
- O=[N+]([O-])c1cc(O)c2ncccc2c1 — 5.6-fold lower, 12.1 µM
- CN(Cc1ccccc1)CC(O)COc1ccc(CNCc2ccc(Cl)s2)cc1 (configuration not stated) — 1.7-fold lower, 39.1 µM
- COC(=O)C1C(O)C(C)C(O)C(C)(O)/C=C\C=C(/C)C(=O)Nc2c(C)c(OC(C)=O)c3c(c2O)C(=O)C(C)=C2OCOC(=C23)/C(C)=C/C(C)(O)C(O)C(C)C1O (configuration not stated) — 2-fold lower, 33.1 µM
- COc1ccc(/C=C/c2cc(-c3ccc(C)cc3)o[n+]2C)cc1 — within 1.5-fold, 100 µM
- COc1ccc(CNCCc2cccc(F)c2)c2ccccc12 — within 1.5-fold, 81.7 µM
- c1ccc2cc(CSCc3nc4ccccc4[nH]3)ccc2c1 — 1.5-fold higher, 103 µM
- Cc1cc(C2N=C(N)Nc3nc4ccccc4n32)c(C)n1-c1ccccc1Cl (configuration not stated) — within 1.5-fold, 88.3 µM
- Fc1ccccc1CCNCc1ccccc1 — within 1.5-fold, 45.7 µM
- Cc1nc2ccccn2c1C(=O)N/N=C/c1ccc([N+](=O)[O-])o1 — 2-fold lower, 33.5 µM
- CCCCCCCCCC[N+](C)(C)CC/C=C1/c2ccccc2Sc2ccc(Cl)cc21 — 4.1-fold lower, 16.5 µM
- O=C(Nc1nnc(-c2ccccn2)o1)c1cccc(Cl)c1 — 1.6-fold higher, 107 µM
- COc1ccc(N2C(=O)CC(N3CC=C(c4ccccc4)CC3)C2=O)cc1 (configuration not stated) — within 1.5-fold, 82.4 µM
- O=C(Nc1ccc(Cl)cc1)c1cccs1 — 1.6-fold higher, 105 µM
- CC(=O)NC(c1cccs1)c1cc([N+](=O)[O-])c2cccnc2c1O (configuration not stated) — 2.2-fold lower, 31.3 µM
- O=C(Oc1c(Br)cc([N+](=O)[O-])cc1Br)c1cccnc1 — within 1.5-fold, 46.5 µM
- O=C(Cn1nc(C(F)F)cc1C(F)F)NNC(=S)Nc1ccc([N+](=O)[O-])cc1 — within 1.5-fold, 64.2 µM
- C[n+]1c2n(c3ccccc31)N=C(c1ccc(-c3ccccc3)cc1)CS2 — 1.8-fold lower, 38 µM
- O=C(Oc1ccccc1)c1cc2ccccc2o1 — within 1.5-fold, 76.2 µM
- CN(C)CCCN1c2ccccc2Sc2ccccc21 — 1.5-fold higher, 103 µM
- Fc1ccc([C@@H]2CCNC[C@H]2COc2ccc3c(c2)OCO3)cc1 — within 1.5-fold, 77.5 µM
- CCN(CC)c1ccc(CNc2nc3ccccc3n2CCN2CCCCC2)cc1 — 2.1-fold higher, 145 µM
- CCCCCCCCCCOC(=O)Cn1c(COc2cccc(OC)c2)[n+](C)c2ccccc21 — 3.7-fold lower, 18.1 µM
- Oc1c(CN2CCCCC2)cc(Br)c2cccnc12 — 3.4-fold lower, 19.8 µM
- COc1ccc(C(=O)NC(=S)NNC(=O)c2cccc(C)c2)cc1 — within 1.5-fold, 46.8 µM
- CCc1ccc(-c2nn(-c3ccccc3)cc2CSC(=N)N)cc1 — 2-fold lower, 34.1 µM
- Cc1ccc(C(=O)N/N=C\c2ccc([N+](=O)[O-])s2)cn1 — 3.4-fold lower, 20 µM
- CCN1CCCC1CNC(=O)c1cc2cc(F)ccc2[nH]1 (configuration not stated) — within 1.5-fold, 91 µM
